Like-named read-outs stand apart in the source and are kept apart here. *1 amine or outer side, *2 acyl side, *3 side chain or, on linkers, in order; H or OH if unused. Where a SMILES comes first, the peptide text is derived from it. Bridges are numbered along the chain shown (N, C = ends). Roman numbers before positions name the chains, in order. [ ]: non-standard residue; d: D form. Phe(4-CF3) = N[C@@H](Cc1ccc(C(F)(F)F)cc1)C(=O)O; Phe(4-tBu) = CC(C)(C)c1ccc(C[C@H](N)C(=O)O)cc1; Bip = N[C@@H](Cc1ccc(-c2ccccc2)cc1)C(=O)O; Diglycolyl = O=C(COCC(=O)[*:2])[*:1]; NMeR = CN[C@@H](CCCNC(=N)N)C(=O)O; β3hE = N[C@@H](CCC(=O)O)CC(=O)O; X1 = O=C(c1ccccc1C[*:2])[*:1]; Pen = CC(C)(S)[C@H](N)C(=O)O; hCys = N[C@@H](CCS)C(=O)O
Key:
[1] = Simulated Intestinal Fluid (SIF) Stability Assay; format: in vitro ADME; conditions: pig, 37° C.; for half-life at 22 μM: simulated intestinal fluid (SIF) with 1% porcine pancreatin, pH 6.5, porcine pancreatin; for half-life: porcine pancreatin
Procedure, shortened: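 Peptide at 22 μM final was incubated at 37° C in blank FaSSIF pH 6.5 with 1% porcine pancreatin. Timed samples were quenched in acetonitrile/methanol/formic acid with internal standard and analysed by LC-MS/MS. Half-lives came from first-order exponential fits of percent remaining.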

[2] = biological target: T1, α4β1 (Homo sapiens, UniProt P05556+P13612); test: α4β1-VCAM Competition ELISA; format: binding; conditions: read-out: ELISA A4B1
T1 construct: purchased R&D Systems 5668-A4
T1 sequence (P13612 34-977 limits assumed): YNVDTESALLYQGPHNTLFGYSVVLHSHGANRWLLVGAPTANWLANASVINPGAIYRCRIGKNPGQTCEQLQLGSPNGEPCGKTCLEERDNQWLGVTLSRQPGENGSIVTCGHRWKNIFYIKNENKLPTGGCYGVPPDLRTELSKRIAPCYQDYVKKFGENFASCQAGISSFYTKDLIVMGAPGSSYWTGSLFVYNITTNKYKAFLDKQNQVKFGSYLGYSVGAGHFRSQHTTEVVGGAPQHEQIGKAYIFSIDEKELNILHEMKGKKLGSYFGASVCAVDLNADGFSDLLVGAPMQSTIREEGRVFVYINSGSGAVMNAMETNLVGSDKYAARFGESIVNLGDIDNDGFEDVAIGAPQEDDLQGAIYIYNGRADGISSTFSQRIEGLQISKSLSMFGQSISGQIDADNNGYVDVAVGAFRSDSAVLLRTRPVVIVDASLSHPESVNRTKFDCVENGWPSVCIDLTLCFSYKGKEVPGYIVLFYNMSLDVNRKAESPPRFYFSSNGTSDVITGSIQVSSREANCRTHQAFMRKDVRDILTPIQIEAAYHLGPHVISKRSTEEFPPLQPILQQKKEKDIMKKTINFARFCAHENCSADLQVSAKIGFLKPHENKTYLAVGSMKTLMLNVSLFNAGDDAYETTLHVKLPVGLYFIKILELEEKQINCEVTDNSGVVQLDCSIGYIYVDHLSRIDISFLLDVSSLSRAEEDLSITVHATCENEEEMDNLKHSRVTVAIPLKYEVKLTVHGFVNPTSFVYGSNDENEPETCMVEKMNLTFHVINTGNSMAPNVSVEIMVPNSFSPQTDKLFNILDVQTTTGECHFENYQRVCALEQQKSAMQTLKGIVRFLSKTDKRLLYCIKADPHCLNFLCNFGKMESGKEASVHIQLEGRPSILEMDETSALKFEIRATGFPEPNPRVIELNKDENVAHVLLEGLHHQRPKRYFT
T1 sequence (P05556 21-728 limits assumed): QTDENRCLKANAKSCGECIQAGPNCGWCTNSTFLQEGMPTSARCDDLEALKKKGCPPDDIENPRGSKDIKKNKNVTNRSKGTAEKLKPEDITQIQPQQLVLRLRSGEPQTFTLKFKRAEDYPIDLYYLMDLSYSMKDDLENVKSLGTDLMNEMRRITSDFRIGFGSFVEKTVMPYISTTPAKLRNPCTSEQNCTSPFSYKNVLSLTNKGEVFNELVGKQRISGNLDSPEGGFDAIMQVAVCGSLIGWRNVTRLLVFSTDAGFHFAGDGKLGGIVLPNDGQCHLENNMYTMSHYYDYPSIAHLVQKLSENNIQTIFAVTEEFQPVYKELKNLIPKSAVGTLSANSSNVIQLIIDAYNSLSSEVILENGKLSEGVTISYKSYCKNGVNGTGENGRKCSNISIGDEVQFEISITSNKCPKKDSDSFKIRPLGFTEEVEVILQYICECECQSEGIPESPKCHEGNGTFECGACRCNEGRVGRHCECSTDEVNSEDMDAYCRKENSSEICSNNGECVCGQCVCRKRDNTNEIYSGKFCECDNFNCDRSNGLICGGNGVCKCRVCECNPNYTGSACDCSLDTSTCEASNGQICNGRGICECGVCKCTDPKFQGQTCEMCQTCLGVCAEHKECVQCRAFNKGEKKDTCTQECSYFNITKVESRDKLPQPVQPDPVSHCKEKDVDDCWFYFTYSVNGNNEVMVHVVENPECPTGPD
Procedure: α4β1-VCAM Competition ELISA
A Nunc MaxiSorp plate was coated with rh VCAM-1/CD106 Fc chimera (R&D #862-VC) at 400 ng/well in 50 ul per well in 1×PBS and incubated overnight at 4° C. The solution was removed by shaking and then blocked with 250 ul of 1% BSA in 1×PBS per well. The wells were then incubated at room temperature for 1 hr with shaking. Each well was then washed once with wash buffer (50 mM Tris-HCl pH7.6, 100 mM NaCL, 1 mM MnCl2 or MgCl2, 0.05% Tween-20). 25 ul of serial dilutions of peptides starting at 200 μM in assay buffer (Assay buffer: 50 mM Tris-HCl pH7.6, 100 mM NaCl, 1 mM MnCl2 or MgCl2, 0.05% Tween-20) was added to each well. Additionally, 25 μl of α4β1 (R&D Systems #5668-A4) was added to each well at a fixed concentration of 120 nM. The final peptide and α4β1 concentrations were 100 μM and 60 nM, respectively. The plates were then incubated at 37° C. for 2 hr. The solution was then removed by shaking and each well was washed three times with wash buffer. 50 ul of 9F10 antibody at 4 ug/ml (purified mouse anti-human CD49d, BD Bioscience Cat #555502) was then added to each well, and the plate was incubated at room temperature for Ihr with shaking. The solution was again removed by shaking, and each well was washed three times with wash buffer. 50 μl of peroxidase-conjugated AffiniPure Goat anti-mouse IgG (Jackson immune research cat #115-035-003) diluted in 1:5000 in assay buffer was added to each well. The plate was incubated at room temperature for 30 min with shaking. Each well was then washed 3 times with wash buffer. 100 ul of TMB was then added to each well and closely observe during developing time. The reaction was stepped with 2N H2SO4 and absorbance was read at 450 nm.

[3] = thioether peptide dimers, Table 7
[4] = thioether monomer peptides, Table 6

Compound	half-life at 22 μM ([1]; monomers, Table 6)	IC50 [2, 3]	also measured
CC(C)C[C@@H]1NC(=O)[C@H]([C@@H](C)O)NC(=O)[C@H](CC(=O)O)NC(=O)[C@H](CO)NC(=O)[C@H](CCCNC(=N)N)N(C)C(=O)c2ccccc2CSC(C)(C)[C@@H](C(=O)N[C@@H](Cc2ccc(C(C)(C)C)cc2)C(=O)N[C@@H](CCC(=O)O)CC(N)=O)NC1=O [compound 134] ([NMeR]SDTL[Pen][Phe(4-tBu)][β3hE]-NH2; linker N-6 via X1)	> 180 min		
CC(C)C[C@@H]1NC(=O)[C@H]([C@@H](C)O)NC(=O)[C@H](CC(=O)O)NC(=O)[C@H](CO)NC(=O)[C@H](CCCNC(=N)N)N(C)C(=O)CSC[C@@H](C(=O)N[C@@H](Cc2c[nH]c3ccccc23)C(=O)N[C@H](CCCCNC(=O)COCC(=O)NCCCC[C@@H](NC(=O)[C@H](Cc2c[nH]c3ccccc23)NC(=O)[C@@H]2CSCC(=O)N(C)[C@@H](CCCNC(=N)N)C(=O)N[C@@H](CO)C(=O)N[C@@H](CC(=O)O)C(=O)N[C@@H]([C@@H](C)O)C(=O)N[C@@H](CC(C)C)C(=O)N2)C(N)=O)C(N)=O)NC1=O [compound 143]		> 1000 nM	
CC(C)C[C@@H]1NC(=O)[C@H]([C@@H](C)O)NC(=O)[C@H](CC(=O)O)NC(=O)[C@H](CO)NC(=O)[C@H](CCCNC(=N)N)N(C)C(=O)c2ccccc2CSC(C)(C)[C@@H](C(=O)N[C@@H](Cc2c[nH]c3ccccc23)C(=O)N[C@H](CCC(=O)O)C(=O)N[C@@H](CCN)C(N)=O)NC1=O [compound 95] (HELM PEPTIDE1{[meR].S.D.T.L.[Pen].W.[dE].[Dab].[am]}|CHEM1{[O=C(c1ccccc1C[*:2])[*:1]]}$PEPTIDE1,CHEM1,1:R1-1:R1|PEPTIDE1,CHEM1,6:R3-1:R2$$$V2.0)			half-life ([1]; monomers, Table 6): > 180 min
CC(C)C[C@@H]1NC(=O)[C@H]([C@@H](C)O)NC(=O)[C@H](CC(=O)O)NC(=O)[C@H](CO)NC(=O)[C@H](CCCNC(=N)N)N(C)C(=O)c2ccccc2CSC[C@@H](C(=O)N[C@@H](Cc2c[nH]c3ccccc23)C(=O)N[C@@H](CCC(=O)O)C(=O)N[C@H](CCCCN)C(N)=O)NC1=O [compound 55] (HELM PEPTIDE1{[meR].S.D.T.L.C.W.E.[dK].[am]}|CHEM1{[O=C(c1ccccc1C[*:2])[*:1]]}$PEPTIDE1,CHEM1,1:R1-1:R1|PEPTIDE1,CHEM1,6:R3-1:R2$$$V2.0)	25 min		IC50 [2, 4]: 100 to 1000 nM
CC(C)C[C@@H]1NC(=O)[C@H]([C@@H](C)O)NC(=O)[C@H](CC(=O)O)NC(=O)[C@H](CO)NC(=O)[C@H](CCCNC(=N)N)N(C)C(=O)C(C)SC[C@@H](C(=O)N[C@@H](Cc2c[nH]c3ccccc23)C(=O)N[C@H](CCCCN)C(N)=O)NC1=O (single isomer, unassigned) [compound 144]		> 1000 nM	half-life at 22 μM ([1]; dimers, Table 7): < 20 min
CC(C)C[C@@H]1NC(=O)[C@H]([C@@H](C)O)NC(=O)[C@H](CC(=O)O)NC(=O)[C@H](CO)NC(=O)[C@H](CCCNC(=N)N)N(C)C(=O)c2ccccc2CSCC[C@@H](C(=O)N[C@@H](Cc2c[nH]c3ccccc23)C(=O)N[C@@H](CCC(=O)O)C(=O)N[C@H](CCCCNC(=O)COCC(=O)NCCCC[C@@H](NC(=O)[C@H](CCC(=O)O)NC(=O)[C@H](Cc2c[nH]c3ccccc23)NC(=O)[C@@H]2CCSCc3ccccc3C(=O)N(C)[C@@H](CCCNC(=N)N)C(=O)N[C@@H](CO)C(=O)N[C@@H](CC(=O)O)C(=O)N[C@@H]([C@@H](C)O)C(=O)N[C@@H](CC(C)C)C(=O)N2)C(N)=O)C(N)=O)NC1=O [compound 157] (I: [NMeR]SDTL[hCys]WE[dK]-NH2 / II: [NMeR]SDTL[hCys]WE[dK]-NH2; linker I:9-II:9 via Diglycolyl; linker I:N-I:6, II:N-II:6 via X1)		100 to 1000 nM	half-life ([1]; dimers, Table 7): < 20 min
CC(C)C[C@@H]1NC(=O)[C@H]([C@@H](C)O)NC(=O)[C@H](CC(=O)O)NC(=O)[C@H](CO)NC(=O)[C@H](CCCNC(=N)N)N(C)C(=O)c2ccccc2CSC(C)(C)[C@@H](C(=O)N[C@@H](Cc2c[nH]c3ccccc23)C(=O)N[C@@H](CCC(=O)O)C(N)=O)NC1=O [compound 96] (HELM PEPTIDE1{[meR].S.D.T.L.[Pen].W.E.[am]}|CHEM1{[O=C(c1ccccc1C[*:2])[*:1]]}$PEPTIDE1,CHEM1,1:R1-1:R1|PEPTIDE1,CHEM1,6:R3-1:R2$$$V2.0)	26 min		
CC(C)C[C@@H]1NC(=O)[C@H]([C@@H](C)O)NC(=O)[C@H](CC(=O)O)NC(=O)[C@H](CO)NC(=O)[C@H](CCCNC(=N)N)N(C)C(=O)c2ccccc2CSC(C)(C)[C@@H](C(=O)N[C@@H](Cc2cccc3ccccc23)C(=O)N[C@H](CCC(=O)O)C(=O)N(C)[C@@H](CCCCN)C(N)=O)NC1=O [compound 69] (HELM PEPTIDE1{[meR].S.D.T.L.[Pen].[O=C([C@H](Cc1cccc2ccccc12)N[*:1])[*:2]].[dE].[meK].[am]}|CHEM1{[O=C(c1ccccc1C[*:2])[*:1]]}$PEPTIDE1,CHEM1,1:R1-1:R1|PEPTIDE1,CHEM1,6:R3-1:R2$$$V2.0)	> 180 min		
CC(C)C[C@@H]1NC(=O)[C@H]([C@@H](C)O)NC(=O)[C@H](CC(=O)O)NC(=O)[C@H](CO)NC(=O)[C@H](CCCNC(=N)N)N(C)C(=O)c2ccccc2CSC(C)(C)[C@@H](C(=O)N[C@@H](Cc2ccc(-c3ccccc3)cc2)C(=O)N[C@@H](CCC(=O)O)CC(N)=O)NC1=O [compound 133] ([NMeR]SDTL[Pen][Bip][β3hE]-NH2; linker N-6 via X1)	> 180 min		
CC(C)C[C@@H]1NC(=O)[C@H]([C@@H](C)O)NC(=O)[C@H](CC(=O)O)NC(=O)[C@H](CO)NC(=O)[C@H](CCCNC(=N)N)N(C)C(=O)c2ccccc2CSC(C)(C)[C@@H](C(=O)N[C@@H](Cc2c[nH]c3ccccc23)C(=O)N[C@H](CCC(=O)O)C(=O)N[C@@H](CN)C(N)=O)NC1=O [compound 94] (HELM PEPTIDE1{[meR].S.D.T.L.[Pen].W.[dE].[NC[C@H](N[*:1])C(=O)[*:2]].[am]}|CHEM1{[O=C(c1ccccc1C[*:2])[*:1]]}$PEPTIDE1,CHEM1,1:R1-1:R1|PEPTIDE1,CHEM1,6:R3-1:R2$$$V2.0)			half-life ([1]; monomers, Table 6): > 180 min
CC(C)C[C@@H]1NC(=O)[C@H]([C@@H](C)O)NC(=O)[C@H](CC(=O)O)NC(=O)[C@H](CO)NC(=O)[C@H](CCCNC(=N)N)N(C)C(=O)c2ccccc2CSC(C)(C)[C@@H](C(=O)N[C@@H](Cc2ccc3ccccc3c2)C(=O)N[C@H](CCC(=O)O)C(N)=O)NC1=O [compound 114] (HELM PEPTIDE1{[meR].S.D.T.L.[Pen].[O=C([C@H](Cc1ccc2ccccc2c1)N[*:1])[*:2]].[dE].[am]}|CHEM1{[O=C(c1ccccc1C[*:2])[*:1]]}$PEPTIDE1,CHEM1,1:R1-1:R1|PEPTIDE1,CHEM1,6:R3-1:R2$$$V2.0)	> 180 min		IC50 [2, 4]: 25 to 100 nM
CC(=O)NCCCC[C@@H](NC(=O)[C@@H](CCC(=O)O)NC(=O)[C@H](Cc1c[nH]c2ccccc12)NC(=O)[C@H]1NC(=O)[C@H](CC(C)C)NC(=O)[C@H]([C@@H](C)O)NC(=O)[C@H](CC(=O)O)NC(=O)[C@H](CO)NC(=O)[C@H](CCCNC(=N)N)N(C)C(=O)c2ccccc2CSC1(C)C)C(N)=O [compound 81] (HELM PEPTIDE1{[meR].S.D.T.L.[Pen].W.[dE].[dK].[am]}|PEPTIDE2{[ac]}|CHEM1{[O=C(c1ccccc1C[*:2])[*:1]]}$PEPTIDE1,PEPTIDE2,9:R3-1:R2|PEPTIDE1,CHEM1,1:R1-1:R1|PEPTIDE1,CHEM1,6:R3-1:R2$$$V2.0)			IC50 [2, 4]: 100 to 1000 nM
CC(C)C[C@@H]1NC(=O)[C@H]([C@@H](C)O)NC(=O)[C@H](CC(=O)O)NC(=O)[C@H](CO)NC(=O)[C@H](CCCNC(=N)N)N(C)C(=O)c2ccccc2CSC(C)(C)[C@@H](C(=O)N[C@@H](Cc2ccc(C(F)(F)F)cc2)C(=O)N[C@@H](CCC(=O)O)C(=O)N[C@H](CCCCNC(=O)COCC(=O)NCCCC[C@@H](NC(=O)[C@H](CCC(=O)O)NC(=O)[C@H](Cc2ccc(C(F)(F)F)cc2)NC(=O)[C@H]2NC(=O)[C@H](CC(C)C)NC(=O)[C@H]([C@@H](C)O)NC(=O)[C@H](CC(=O)O)NC(=O)[C@H](CO)NC(=O)[C@H](CCCNC(=N)N)N(C)C(=O)c3ccccc3CSC2(C)C)C(N)=O)C(N)=O)NC1=O [compound 166] (I: [NMeR]SDTL[Pen][Phe(4-CF3)]E[dK]-NH2 / II: [NMeR]SDTL[Pen][Phe(4-CF3)]E[dK]-NH2; linker I:9-II:9 via Diglycolyl; linker I:N-I:6, II:N-II:6 via X1)		25 to 100 nM	half-life ([1]; dimers, Table 7): 30 min

From patent publication US20260217767A1, “NOVEL A4B7 THIOETHER PEPTIDE DIMER ANTAGONISTS” (Protagonist Therapeutics, Inc., priority 2014, published 2026)
